According to US8361999B2, “Methods of treating cholesterol gallstone disease with ezetimibe” (Pontificia Universidad Catolica de Chile, priority 2005, dated 2013):

Tested on: C57BL/6J mice
Experiment: Lithiasis of the gallbladder and cholesterol crystals in gallbladder bile, protocol #1 (14 days)
Assay type: in vivo, mouse
Details: for formation of cholesterol crystals and cholesterol gallstones: C57BL/6 mice on lithogenic diet plus ezetimibe
Description: Experimental Animal Disease Models. Spontaneous cholelithiasis is extremely rare in experimental or wild animals, probably because they secrete low levels of cholesterol into the bile and have therefore non-saturated cholesterol bile. However, different animal models (rabbit, hamster, prairie dog, squirrel and mouse) develop cholelithiasis similar to the human disease on cholesterol rich plus bile salts (cholic acid) and sometimes triglycerides rich experimental diets. The mouse is the best characterized experimental model where the development of the disease is dependent of a diet known as “lithogenic” (1.25% cholesterol, 0.5% cholic acid, 15% fat). Under these conditions most of the available mouse strains develop cholesterol cholelithiasis in variable proportions and times (Paigen, 2002). It has been established that there are strains more susceptible or more resistant to develop cholelithiasis, which could be genetically determined. The mice strains C57L and C57BL/6 are particularly susceptible to develop cholelithiasis (80-100% of the animals develop the disease in 2-4 weeks on lithogenic diet) (Paigen, 2002; Bouchard et al., unpublished data communicated in www.jax.org/pub-cgi/phenome). Studies performed in these models during the last years have been vital in the better understanding of the disease and for the discovery of genes that are potentially relevant in generating susceptibility to the illness (Paigen, 2002). In this preclinical innovation work we use the mouse strain C57BL/6.
We used mice C57BL/6J susceptible to the development of cholelithiasis originally obtained from Jackson Corp (Bar Harbor, Me., USA) and the colonies were grown in our Laboratory of Gastroenterology, Facultad de Medicina, P. Universidad Católica de Chile. The experimental groups were fed a control chow diet low in cholesterol (<0.02% cholesterol, Prolab RMH3000, PMI Feeds Inc., St. Louis, Mo.) or a lithogenic diet (1.25% cholesterol, 0.5% cholic acid, 15% fat, TD90221, Harlan Teklad, Madison, Wis.) (Amigo et al. 2000). These mice were also treated with Ezetimibe (Zetia®, Merk/Schering Plough) or placebo. In protocol #1 Zetia® tablets were grinded in a porcelain mortar and dissolved in water to be administered to the mice in one daily dose (08 h) of 5 mg/Kg weight by gavage in a final volume of […]; the control groups were given the same volume of water by gavage without the drug. In protocol #2 Zetia® tablets were grinded in the same way described above, dissolved in 200 cc 100% ethanol (Merck) and added to the lithogenic diet previously grinded and dried for 48 h at room temperature. C57BL/6J mice received this lithogenic diet plus Zetia® in a estimated dose of 5-6 mg/kg/day during 30 days (the mice consume 4-5 gr of diet per day). […]

SMILES: O=C1[C@H](CC[C@H](O)c2ccc(F)cc2)[C@@H](c2ccc(O)cc2)N1c1ccc(F)cc1 [Ezetimibe, (−)-1-(4-fluorophenyl)-(3R)-[3-(4-fluorophenyl)-(.S)-hydroxypropyl]-(4S)-(4-hydroxyphenyl)-2-azetidinone]
- formation of cholesterol crystals and cholesterol gallstones: complete inhibition
- formation of cholesterol crystals and cholesterol gallstones (listed as ezetimibe): inhibited
- development of cholelithiasis or cholesterol crystals in the bile (control diet low in cholesterol plus Ezetimibe): did not develop cholelithiasis or cholesterol crystals
- mice that developed gallstones or cholesterol crystals in the gallbladder (lithogenic diet plus Ezetimibe 5 mg/kg/day by gavage, 100% in lithogenic diet plus water): none
